The record followed here is US20250163065A1, “PYRROLOTRIAZINONE COMPOUND, PHARMACEUTICAL COMPOSITION COMPRISING SAME, PREPARATION METHOD THEREFOR, AND USE THEREOF” (SHANGHAITECH UNIVERSITY, priority 2022, published 2025).

What is called Tmax is the time at which the peak concentration occurs. Usually Cmax stands for the highest concentration seen after dosing. For orientation: EC50 means the midpoint of the concentration-response curve. For orientation: Emax means the size of the effect at its maximum, as opposed to the concentration needed. The term Kp denotes the ratio of the level in a tissue or fluid to that in plasma or blood.

The structures appear in SMILES notation. Read-outs that look alike come from different tables or passages of the source.

Data set [1] in a line: Pharmacokinetics and brain distribution in mice after single intraperitoneal injection. It is filed as in vivo, male C57 mice. The following applies: mouse, 10 mg/kg intraperitoneal; for half-life / Tmax / Cmax: C57, ip.
The next data set has as its target GPR139 (Homo sapiens (Human), UniProt Q6DWJ6). Put plainly: Agonistic activity on GPR139, calcium flux detection assay (FLIPR) in transfected CHO-K1 cells. Conditions: for EC50: calcium flux, CHO-K1 cells transfected with GPR139 plasmid, mean ± standard deviation; for Emax: CHO-K1. Format: cell-based. A general note: Calcium flux is commonly read through the fluorescence of an indicator in the cells.

Another data set deals with BALB/c mice. Put plainly: Social interaction experiment in BALB/c mice (negative symptoms of schizophrenia). The following applies: for Social time: 10-minute period. It is filed as in vivo. From the text: The experimental subjects were 6-week-old male BALB/c wild-type mice, weighing approximately 22 grams, purchased from Shanghai Lingchang Biotechnology Co., Ltd. They were housed in SPF-grade breeding facilities, with 2 mice per cage, under a 12-hour light/dark cycle, with free access to food and water. All behavioral experiments in this project were completed during the light cycle. The experiment adhered to all relevant regulations and guidelines for animal welfare and ethics, and was supervised and inspected by the ethics committee and laboratory animal managers.
The length, width, and height of the behavioral box used in this experiment were all 40 cm. During the experiment, 4 mice were tested in 4 behavioral boxes at the same time. In this experiment, Etho Vision XT was used for experimental setup and video recording.
The mice were 5 weeks old when purchased. After one week of observation, the experiment was started when they were 6 weeks old and weighed about 22 grams. Before each experiment, the experimental mice were restricted from eating 18 hours in advance. On the day of the experiment, the mice were transferred to the behavioral laboratory to familiarize themselves with the environment 1 hour in advance. Subsequently, they were administered by intraperitoneal injection, and each mouse was returned to its original cage after injection. After 20 minutes, the experimental mice were placed in the behavioral box to acclimate for 10 minutes. Then, a stimulus mouse (from the same batch of BALB/c) was placed in a corner of the behavioral box, away from the experimental mouse. The two mice were allowed to explore freely for 10 minutes while their activity was monitored and recorded by a camera, and the data was archived.
The experimental data were analyzed. The social interaction time (including approaching, sniffing, grooming, chasing, attacking, etc.) was calculated for each experimental mouse over a 10-minute period, and the total social time of each mouse across different groups was analyzed by one-way analysis of variance.

[2] abbreviates: male, brain tissue, mean n=3, read-out: T1/2 Brain (converted).
The mark [3] stands for this setting: male, brain tissue, mean n=3, read-out: tmax Brain.
The mark [4] stands for this setting: male, plasma, mean n=3, read-out: T1/2 Plasma (converted).
Setting [5] is: male, plasma, mean n=3, read-out: tmax Plasma.

Sequence of GPR139 (Q6DWJ6 whole entry, species assumed): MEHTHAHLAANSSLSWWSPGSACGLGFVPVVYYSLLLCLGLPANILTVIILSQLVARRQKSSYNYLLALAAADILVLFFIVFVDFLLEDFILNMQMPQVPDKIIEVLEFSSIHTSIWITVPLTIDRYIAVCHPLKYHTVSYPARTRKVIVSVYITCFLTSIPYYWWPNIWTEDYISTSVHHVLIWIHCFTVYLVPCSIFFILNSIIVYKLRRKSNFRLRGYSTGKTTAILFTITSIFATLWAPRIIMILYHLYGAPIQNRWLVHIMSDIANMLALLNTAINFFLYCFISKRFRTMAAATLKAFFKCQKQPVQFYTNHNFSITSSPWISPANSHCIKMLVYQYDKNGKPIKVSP

Take `C[C@H](NC(=O)Cn1ncc2cccn2c1=O)c1ccc(F)cc1` [Compound I-1]: the half-life in data set [1] (setting [2]) was 19.2 min; in data set [1] (setting [4]), 42 min. The Tmax in data set [1] (setting [3]) and in data set [1] (setting [5]) was 30 min each time. In data set [1] (male, plasma, mean n=3), this compound yielded a Cmax of 700 ng/g. For the same compound, the “Cmax Brain” value in data set [1] (brain tissue, mean n=3) was 713 ng/g.
As for `C[C@H](NC(=O)Cn1ncc2cccn2c1=O)c1ccccc1` [Compound I-4, (S)-2-(4-oxopyrrolo[1,2-d][1,2,4]triazin-3(4H)yl)-N-(1-phenylethyl)acetamide], the EC50 at GPR139 came out at 111 ± 4 nM.
Turning to `C[C@H](NC(=O)Cn1ncc2cccn2c1=O)c1ccc(OC(F)(F)F)cc1` [Compound I-5, (S)-2-(4-oxopyrrolo[1,2-d][1,2,4]triazin-3(4H)yl)-N-(1-(4-(trifluoromethoxy)phenyl)ethyl)acetamide], the “One-way analysis of variance (social time)” value in the data set with BALB/c mice (0.3 mg/kg intraperitoneal) and in the data set on BALB/c mice (1 mg/kg intraperitoneal) was “No difference” each time. Also, the “Social time” value in the data set on BALB/c mice (0.3 mg/kg intraperitoneal) was determined as 107 ± 15 s; with BALB/c mice (1 mg/kg intraperitoneal) it was 103 ± 17 s; in the data set with BALB/c mice (3 mg/kg intraperitoneal) it was 129 ± 12 s. For the same compound, in the data set on BALB/c mice (dose of 3 mg/kg), the “Effect on social disorders in mice” value is given as “significant improvement effect”.
`Cc1ccc2cnn(CC(=O)N[C@@H](C)c3ccccc3)c(=O)n12` [Compound I-14, (S)-2-(6-methyl-4-oxopyrrolo[1,2-d][1,2,4]triazin-3(4H)yl)-N-(1-phenylethyl)acetamide]: the EC50 at GPR139 came to 13 ± 2 nM.
Take `Cc1ccc([C@H](C)NC(=O)Cn2ncc3c(C)cc(C)n3c2=O)cc1` [Compound I-18, (S)-2-(6,8-dimethyl-4-oxopyrrolo[1,2-d][1,2,4]triazin-3(4H)yl)-N-(1-(p-tolyl)ethyl)acetamide]: the EC50 on GPR139 was determined as 93 ± 15 nM.
With `Cc1cc(C)n2c(=O)n(CC(=O)N[C@@H](C)c3ccc(Cl)cc3)ncc12` [Compound I-22, (S)—N-1-(4-chlorophenyl)ethyl-2-(6,8-dimethyl-4-oxopyrrolo[1,2-d][1,2,4]triazin-3(4H)yl)acetamide], the EC50 on GPR139 was 56 ± 11 nM.
Take `C[C@H](NC(=O)Cn1ncc2cccn2c1=O)c1ccc(C(F)(F)F)cc1` [Compound I-32, (S)-2-(4-oxopyrrolo[1,2-d][1,2,4]triazin-3(4H)yl)-N-(1-(4-(trifluoromethyl)phenyl)ethyl)acetamide]: the half-life in data set [1] (setting [2]) is 31.8 min; in data set [1] (setting [4]) it was 31.2 min. The Tmax in data set [1] (setting [3]) and in data set [1] (setting [5]) was 30 min each time. For the same compound, the Cmax in data set [1] (male, plasma, mean n=3) was 868 ng/g. For the same compound, in data set [1] (brain tissue, mean n=3), the “Cmax Brain” value worked out at 1264 ng/g.
Consider `CC(C)[C@H](NC(=O)Cn1ncc2cccn2c1=O)c1ccc(F)cc1` [Compound I-37, (S)—N-(1-(4-fluorophenyl)-2-methylpropyl)-2-(4-oxopyrrolo[1,2-d][1,2,4]triazin-3(4H)yl)acetamide], for which, on GPR139, the Emax came out at 92% and the EC50 amounted to 120 nM.
Taken in the same sequence, the figures for `Cc1ccc2cnn(CC(=O)N[C@H](c3ccc(F)cc3)C(C)C)c(=O)n12` [Compound I-39, (S)—N-(1-(4-fluorophenyl)-2-methylpropyl)-2-(6-methyl-4-oxopyrrolo[1,2-d][1,2,4]triazin-3(4H)yl)acetamide] were 94% and 26 nM.
`C[C@H](NC(=O)Cn1nnc2ccccc2c1=O)c1ccc(OC(F)(F)F)cc1` [TAK-041, reference compound]: the “Social time” value with BALB/c mice (1 mg/kg intraperitoneal) was 93 ± 26 s; with BALB/c mice (3 mg/kg intraperitoneal), 129 ± 28 s. The compound further returned a Kp in data set [1] (male, C57, brain and plasma, ip) of 0.892. The figures for the Tmax in data set [1] (setting [3]) and in data set [1] (setting [5]) were 30 min and 360 min, respectively. Besides, the “Cmax Brain” value in data set [1] (brain tissue, mean n=3) is 6754 ng/g. In addition, the “T1/2 Brain” value in data set [1] (brain tissue, mean n=3) was determined as 108 h. The “Cmax Plasma” value in data set [1] (plasma, mean n=3) was found to be 7057 ng/g.
